# Patent publication US20250025443A1, “COMPOUNDS AND METHODS FOR TREATING CORONA VIRUSES” (CLEAR CREEK BIO, INC., priority 2021, published 2025)
# Like-named read-outs stand apart in the source and are kept apart here.
# Target: SARS-CoV-2 Papain-Like Protease (PLpro) (Severe acute respiratory syndrome coronavirus 2 (2019-nCoV) (SARS-CoV-2), UniProt P0DTD1)
# Experiment: biochemical
# Conditions: read-out: PLpro IC50
# [1] = SARS-CoV-2 PLpro enzymatic fluorescence assay
# [2] = PLpro enzymatic fluorescence assay, class symbols
SMILES,IC50 [1] [nM],IC50 [2] [nM]
"Cc1ccc(OC[C@@H]2CCN2C)cc1C(=O)NC1(c2cc(-c3cccs3)cc3ncccc23)CC1 [Compound 551, (S)-2-Methyl-5-((1-methylazetidin-2-yl)methoxy)-N-(1-(7-(thiophen-2-yl)quinolin-5-yl)cyclopropyl)benzamide]",< 100,
"C=Cc1cc(C2(NC(=O)c3cc(OCCNC)ccc3C)CC2)c2cccnc2c1 [Compound 615, 2-Methyl-5-(2-(methylamino)ethoxy)-N-(1-(7-vinylquinolin-5-yl)cyclopropyl)benzamide]",,< 100
"Cc1cc2cc[nH]c2cc1C(=O)N[C@H](C)c1cccc2ccccc12 [Compound 153, (R)-5-Methyl-N-(1-(naphthalen-1-yl)ethyl)-1H-indole-6-carboxamide]",1000 to 5000,
"COCCOc1cc(C2(NC(=O)c3cc(OC[C@@H]4CCN4C)ccc3C)CC2)c2cccnc2c1 [Compound 591, (S)-N-(1-(7-(2-Methoxyethoxy)quinolin-5-yl)cyclopropyl)-2-methyl-5-((1-methylazetidin-2-yl)methoxy)benzamide]",,< 100
"COc1cc(C2(NC(=O)c3cc(OC[C@@H]4CCN4C)ccc3C)CC2)c2cccnc2c1 [Compound 527, (S)-N-(1-(7-Methoxyquinolin-5-yl)cyclopropyl)-2-methyl-5-((1-methylazetidin-2-yl)methoxy)benzamide]",< 100,
"Cc1cc2nc(CN)[nH]c2cc1C(=O)N[C@H](C)c1cccc2ccccc12 [Compound 128, (R)-2-(Aminomethyl)-5-methyl-N-(1-(naphthalen-1-yl)ethyl)-1H-benzo[d]imidazole-6-carboxamide]",100 to 1000,
"C[C@@H](NC(=O)c1ccc2nc[nH]c2c1)c1cccc2ccccc12 [Compound 125, (R)-N-(1-(Naphthalen-1-yl)ethyl)-1H-benzo[d]imidazole-6-carboxamide]",> 5000,
"Cc1ccc(OCC(N)C(C)(C)C)cc1C(=O)NC1(c2cccc3ccccc23)CC1 (stereo not drawn) [Compound 343, 5-(2-Amino-3,3-dimethylbutoxy)-2-methyl-N-(1-(naphthalen-1-yl)cyclopropyl)benzamide]",< 100,
"CNCCOc1ccc(C)c(C(=O)NC2(c3cc(OC)cc4ccccc34)CC2)c1 [Compound 347, N-(1-(3-Methoxynaphthalen-1-yl)cyclopropyl)-2-methyl-5-(2-(methylamino)ethoxy)benzamide]",< 100,
"Cc1ccc(OC[C@@H]2CCN2C)cc1C(=O)NC1(c2cc(-c3sccc3Cl)cc3ncccc23)CC1 [Compound 668, (S)-N-(1-(7-(3-Chlorothiophen-2-yl)quinolin-5-yl)cyclopropyl)-2-methyl-5-((1-methylazetidin-2-yl)methoxy)benzamide]",,< 100
"Cc1ccc(OC[C@@H]2CCN2)cc1C(=O)NC1(c2cc(-c3ccoc3)cc3ncccc23)CC1 [Compound 645, (S)-5-(Azetidin-2-ylmethoxy)-N-(1-(7-(furan-3-yl)quinolin-5-yl)cyclopropyl)-2-methylbenzamide]",,< 100
"COc1cc(C2(NC(=O)c3cc(OC[C@@H]4CCN4)ccc3C)CC2)c2cccnc2c1 [Compound 511, (S)-5-(Azetidin-2-ylmethoxy)-N-(1-(7-methoxyquinolin-5-yl)cyclopropyl)-2-methylbenzamide]",< 100,
"Cc1nnc(-c2cc(C3(NC(=O)c4cc(OC[C@@H]5CCN5)ccc4C)CC3)c3cccnc3c2)s1 [Compound 673, (S)-5-(Azetidin-2-ylmethoxy)-2-methyl-N-(1-(7-(5-methyl-1,3,4-thiadiazol-2-yl)quinolin-5-yl)cyclopropyl)benzamide]",,< 100
"Cc1ccc(CC(N)=O)cc1C(=O)NC1(c2cccc3ccccc23)CC1 [Compound 312, 5-(2-Amino-2-oxoethyl)-2-methyl-N-(1-(naphthalen-1-yl)cyclopropyl)benzamide]",100 to 1000,
"Cc1ccc(NC2CN(C(=O)OC(C)(C)C)C2)cc1C(=O)NC1(c2cccc(-c3ccccc3)c2)CC1 [Compound 188, tert-Butyl 3-((3-((1-([1,1′-biphenyl]-3-yl)cyclopropyl)carbamoyl)-4-methylphenyl)amino)azetidine-1-carboxylate]",,> 5000
"Cc1ccc(OC[C@@H]2CCN2C)cc1C(=O)NC1(c2cc(-c3ccc(F)c(Cl)c3)cc3ncccc23)CC1 [Compound 687, (S)—N-(1-(7-(3-Chloro-4-fluorophenyl)quinolin-5-yl)cyclopropyl)-2-methyl-5-((1-methylazetidin-2-yl)methoxy)benzamide]",,< 100
"Cc1ccc(N2C[C@@H](C)N[C@@H](C)C2)cc1C(=O)NC1(c2cccc3ccccc23)CC1 [Compound 506, 5-((3S,5R)-3,5-Dimethylpiperazin-1-yl)-2-methyl-N-(1-(naphthalen-1-yl)cyclopropyl)benzamide]",,< 100
"Cc1ccc(NC2CNC2)cc1C(=O)NC1(c2cccc(-c3ccccc3)c2)CC1 [Compound 187, N-(1-([1,1′-Biphenyl]-3-yl)cyclopropyl)-5-(azetidin-3-ylamino)-2-methylbenzamide]",1000 to 5000,

SMILES,IC50 [1] [nM],IC50 [2] [nM]
"Cc1ccc(OC[C@H]2CCN2C)cc1C(=O)NC1(c2cccc3ccccc23)CC1 [Compound 309, (R)-2-Methyl-5-((1-methylazetidin-2-yl)methoxy)-N-(1-(naphthalen-1-yl)cyclopropyl)benzamide]",< 100,
"Cc1ccc(OC[C@@H]2CCN2C)cc1C(=O)NC1(c2cc(Cl)cc3ncccc23)CC1 [Compound 624, (S)-N-(1-(7-Chloroquinolin-5-yl)cyclopropyl)-2-methyl-5-((1-methylazetidin-2-yl)methoxy)benzamide]",< 100,
"C=C(C)c1cc(C2(NC(=O)c3cc(OC[C@@H]4CCN4)ccc3C)CC2)c2cccnc2c1 [Compound 613, (S)-5-(Azetidin-2-ylmethoxy)-2-methyl-N-(1-(7-(prop-1-en-2-yl)quinolin-5-yl)cyclopropyl)benzamide]",,< 100
"Cc1ccc(OC[C@@H]2CCN2C)cc1C(=O)NC1(c2cc(-c3nccs3)cc3ncccc23)CC1 [Compound 590, (S)-2-Methyl-5-((1-methylazetidin-2-yl)methoxy)-N-(1-(7-(thiazol-2-yl)quinolin-5-yl)cyclopropyl)benzamide]",,< 100
"Cc1cc2c(cc1C(=O)NC1(c3cccc4ccccc34)CC1)NCC2(C)C [Compound 262, 3,3,5-Trimethyl-N-(1-(naphthalen-1-yl)cyclopropyl)indoline-6-carboxamide]",100 to 1000,
"Cc1ccc(OCCN(C)C)cc1C(=O)NC1(c2cccc(Br)c2C)CC1 [Compound 336, N-(1-(3-Bromo-2-methylphenyl)cyclopropyl)-5-(2-(dimethylamino)ethoxy)-2-methylbenzamide]",100 to 1000,
"Cc1ccc(OCCCN)cc1C(=O)NC1(c2cccc3ccccc23)CC1 [Compound 316, 5-(3-Aminopropoxy)-2-methyl-N-(1-(naphthalen-1-yl)cyclopropyl)benzamide]",100 to 1000,
"Cc1ccc(OCCN(C)C)cc1C(=O)NC1(c2ccccc2OCc2ccccc2)CC1 [Compound 327, N-(1-(2-(Benzyloxy)phenyl)cyclopropyl)-5-(2-(dimethylamino)ethoxy)-2-methylbenzamide]",1000 to 5000,
"CC(=O)c1ccc(-c2cc(C3(NC(=O)c4cc(OC[C@@H]5CCN5)ccc4C)CC3)c3cccnc3c2)s1 [Compound 643, (S)-N-(1-(7-(5-Acetylthiophen-2-yl)quinolin-5-yl)cyclopropyl)-5-(azetidin-2-ylmethoxy)-2-methylbenzamide]",,< 100
"Cc1ccc(OC[C@@H]2CCN2C)cc1C(=O)NC1(c2cc(OS(=O)(=O)C(F)(F)F)cc3ncccc23)CC1 [Compound 739, (S)-5-(1-(2-Methyl-5-((1-methylazetidin-2-yl)methoxy)benzamido)cyclopropyl)quinolin-7-yl trifluoromethanesulfonate]",,< 100
"COC(=O)/C=C/C(=O)NNC(=O)CCc1ccccc1C(=O)NC1(c2cccc3ccccc23)CC1 [Compound 373, (E)-Methyl 4-(2-(3-(2-((1-(naphthalen-1-yl)cyclopropyl)carbamoyl)phenyl)propanoyl) hydrazinyl)-4-oxobut-2-enoate]",< 100,
"Cc1ccc(OC[C@@H]2CCN2C)cc1C(=O)NC1(c2cc(-c3ccn(-c4ccccc4)n3)cc3ncccc23)CC1 [Compound 659, (S)-2-Methyl-5-((1-methylazetidin-2-yl)methoxy)-N-(1-(7-(1-phenyl-1H-pyrazol-3-yl)quinolin-5-yl)cyclopropyl)benzamide]",,< 100
"Cc1ccc(CCN)cc1C(=O)NC1(c2cccc3ccccc23)CC1 [Compound 378, 5-(2-Aminoethyl)-2-methyl-N-(1-(naphthalen-1-yl)cyclopropyl)benzamide]",< 100,
"Cc1ccc(OCC2CC(C)(C)N2)cc1C(=O)NC1(c2cccc3ccccc23)CC1 (stereo not drawn) [Compound 534, 5-((4,4-Dimethylazetidin-2-yl)methoxy)-2-methyl-N-(1-(naphthalen-1-yl)cyclopropyl)benzamide]",< 100,
"Cc1ccc(OCCN(C)C)cc1C(=O)NC1(c2ccc(Oc3ccccc3)cc2)CC1 [Compound 279, 5-(2-(Dimethylamino)ethoxy)-2-methyl-N-(1-(4-phenoxyphenyl)cyclopropyl)benzamide]",1000 to 5000,
"C#Cc1cc(C2(NC(=O)c3cc(OC[C@@H]4CCN4)ccc3C)CC2)c2cccnc2c1 [Compound 697, (S)-5-(Azetidin-2-ylmethoxy)-N-(1-(7-ethynylquinolin-5-yl)cyclopropyl)-2-methylbenzamide]",,< 100
"Cc1ccc(OC[C@@H](C)N)cc1C(=O)NC1(c2cc(-c3cccs3)cc3ccccc23)CC1 [Compound 543, (R)-5-(2-Aminopropoxy)-2-methyl-N-(1-(3-(thiophen-2-yl)naphthalen-1-yl)cyclopropyl)benzamide]",,< 100
"C=Cc1cc2c(c(C3(NC(=O)c4cc(OC[C@@H]5CCN5C)ccc4C)CC3)c1)CCCN2C [Compound 796, (S)-2-Methyl-N-(1-(1-methyl-7-vinyl-1,2,3,4-tetrahydroquinolin-5-yl)cyclopropyl)-5-((1-methylazetidin-2-yl)methoxy)benzamide]",,< 100
